Source: publication PMC4305510 (Analytical biochemistry, 2014)
Like-named read-outs stand apart in the source and are kept apart here.

Legend:
Sinapis alba myrosinase [1] = assay: HPLC progress curves, pooled wavelengths; assay type: biochemical; details: read-out: Km (μM) / HPLC, 0.1 M phosphate pH 7.4, 37 °C
Sinapis alba myrosinase [2] = assay: HPLC progress curves, pooled wavelengths; assay type: biochemical; details: read-out: Km (μM) / HPLC; 0.1 M phosphate pH 7.4, 37 °C; 14.52 U/ml myrosinase

In the case of C=CC/C(=N/OS(=O)(=O)O)S[C@@H]1O[C@H](CO)[C@@H](O)[C@H](O)[C@H]1O [compound 4, Sinigrin], the Km (Sinapis alba myrosinase [1]; 4.27 U/ml myrosinase) is reported as 168 ± 17 µM.

O=S(=O)(O)O/N=C(\S[C@@H]1O[C@H](CO)[C@@H](O)[C@H](O)[C@H]1O)c1ccccc1 [compound 5, Phenyl glucosinolate] gave a Km (Sinapis alba myrosinase [2]) of 1160 ± 70 µM.

For O=S(=O)(O)O/N=C(/Cc1ccccc1)S[C@@H]1O[C@H](CO)[C@@H](O)[C@H](O)[C@H]1O [compound 6, glucotropaeolin], the Km (Sinapis alba myrosinase [1]; 4.84 U/ml myrosinase) was 90.6 ± 6.8 µM.
